Assay results from PMC5574226, “A Liquid Chromatography-Tandem Mass Spectrometry Method for Evaluation of Two Brands of Enalapril 20 mg Tablets in Healthy Human Volunteers” (Journal of Analytical Methods in Chemistry, 2017).
Where a name gives a salt, the structure may show the parent alone. Read-outs that look alike come from different tables or passages of the source.

Columns and labels:
[1] = Stability of enalapril and enalaprilat in spiked plasma under different storage conditions; type: physicochemical, human; conditions: for Stability: n = 6; for Stability test results: spiked plasma and stock solutions, room temperature for 20 hrs, freeze-thaw cycles, autosampler, accelerated stability
Source text: (4) Stability. Stability validation was done in triplicate run for low, mid, and high QC samples and calculated from spiked calibration curve. […]

[2] = single oral intake of 20 mg of enalapril, 24 healthy subjects, GC-MS method; cited from earlier work
[3] = Bioequivalence study of two enalapril 20 mg tablet formulae, plasma levels by LC-MS/MS; type: in vivo, human; conditions: single oral dose 20 mg, 30 healthy male volunteers
Experimental: Protein precipitation were done for each sample by using acetonitrile. The mobile phase was prepared by mixing of 70% methanol and 30% of a mixture of 20 mM ammonium acetate and 0.2 mM formic acid, while the stationary phase was RP-C18 column (50 × 4.0 mm ID, 5 μm). The column was maintained at 40°C, while the autosampler temperature was 4°C. The flow rate was 1.0 ml/min. The plasma levels of the analytes were measured after a single dose of 20 mg enalapril tablets under fasting conditions.
In this study we applied a clinical study similar to that of [16] with modification. Thirty healthy adult male volunteers participated in this study after signing an informed consent. […]
After fasting period (12 hrs, overnight), each volunteer was given an oral dose containing 20 mg of enalapril either “A, reference” or “B, tested” formula with 200 mL of water in the sequence determined by randomization. […]
The pharmacokinetic parameters considered for assessment of the bioequivalence study between the reference drug and test drug were as follows: maximum plasma concentration (Cmax), area under plasma concentration/time plot until the last quantifiable value (AUC0–72), auxiliary parameters, time of the maximum plasma concentration (tmax), elimination half-life time (t-half), and area under plasma concentration/time plot extrapolated to infinity (AUC0–∞). […]

[4] = LC-MS/MS method; cited from earlier work
[5] = cited from earlier work
[6] = design: method as in doi:10.5012/bkcs.2004.25.6.878; conditions: after oral administration of enalapril, LC-MS method; cited from earlier work
[7] = design: method as in PMID 27437883; conditions: hospitalizing type 2 diabetes mellitus patients, overall and high-risk subgroups; cited from earlier work
[8] = Accelerated stability at −30.0°C for 30 days, QC 3 ng/ml, plasma
[9] = Accelerated stability at −30.0°C for 30 days, QC 100 ng/ml, plasma
[10] = Accelerated stability at −30.0°C for 30 days, QC 160 ng/ml, plasma
[11] = Autosampler stability 24 h at 4°C, QC 3 ng/ml
[12] = Autosampler stability 24 h at 4°C, QC 100 ng/ml
[13] = Autosampler stability 24 h at 4°C, QC 160 ng/ml
[14] = Freeze and thaw stability at −20°C (3 cycles), QC 3 ng/ml, plasma
[15] = Freeze and thaw stability at −20°C (3 cycles), QC 100 ng/ml, plasma
[16] = Room temperature stability for 10 h, QC 3 ng/ml, plasma
[17] = Room temperature stability for 10 h, QC 100 ng/ml, plasma
[18] = Room temperature stability for 10 h, QC 160 ng/ml, plasma

Structure (SMILES)	Stability [1, 8]	Stability [1, 9]	Stability [1, 10]	Stability [1, 11]	Stability [1, 12]	Stability [1, 13]	Stability [1, 14]	Stability [1, 15]	Stability [1, 16]	Stability [1, 17]	Stability [1, 18]	Stability test results [1]	AUC0–t [4]	AUC0–∞ [4]	Cmax [4]	T1/2 [4]	tmax [4]	further results
CCOC(=O)[C@H](CCc1ccccc1)N[C@@H](C)C(=O)N1CCC[C@H]1C(=O)O [enalapril, (S)-1-(N-(1-(ethoxycarbonyl)-3-phenylpropyl)-L-alanyl)-Lproline (Z)-2-butenedioate salt]	97.81%	96.59%	85.10%	95.83%	98.34%	95.40%	96.45%	98.54%	99.57%	101.64%	103.66%	greater than 85%	136 ± 36 ng·h/mL	138 ± 36 ng·h/mL	90.5 ± 28.4 ng/mL	1.35 ± 0.61 h	0.860 ± 0.310 h	Cmax, mean [2]: 72.9 ± 41.6 ng/mL; tmax [2]: 4.0 ± 1.4 h; Tolerability in volunteers [3]: well tolerated; Bioavailability ([5]; absorbed from the gastrointestinal tract): 60–70%; Plasma level after 4 hrs ([5]; after 4 hrs): < 10 ng/mL; Effect of presence of food in the GI tract on absorption [5]: not affected; Terminal half-life [5]: about 2 h; Time to maximum plasma concentration ([5]; enalapril, after oral administration): ≤ 1 h; Maximum plasma concentration (Cmax), mean [6]: 102 ± 39 ng/mL; Time to maximum plasma concentration (tmax) [6]: 0.96 ± 0.36 h
C[C@H](N[C@@H](CCc1ccccc1)C(=O)O)C(=O)N1CCC[C@H]1C(=O)O [enalaprilat]	110.47%	103.62%	96.68%	100.94%	99.93%	102.09%	95.31%	96.70%	98.02%	98.47%	100.17%	greater than 85%	401 ± 89 ng·h/mL	420 ± 91 ng·h/mL	47.5 ± 12.4 ng/mL	6.71 ± 2.22 h	4.20 ± 1.06 h	Stability ([1]; Freeze and thaw stability at −20°C (3 cycles), QC 160 ng/ml, plasma): 101.18%; Half-life [5]: 30 to 35 h; Time of maximum plasma concentration ([5]; enalaprilat after administration of enalapril): 3 to 4 h
N[C@@H](CC(=O)N1CCn2c(nnc2C(F)(F)F)C1)Cc1cc(F)c(F)cc1F [sitagliptin]																		Effect on the risk for heart failure [7]: did not affect
